Results reported in the supplement of paper PMC10307832.

Legend:
Assay in all cases: relative viability (nuclei count vs DMSO), 5 days (fraction); higher = more cells survive
HCC-78 = tested on: HCC-78
Method in brief: (§1)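 Relative viability is defined as nuclei in treated wells over nuclei in vehicle wells. Duplicate plates were run and medians reported. Lung cancer cell lines in 1536-well plates were dosed by pin tool one day after seeding, with one drug or with a fixed anchor-drug dose plus five library-drug doses (not always all listed) in √10 steps, and nuclei were counted after 5 days.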

LOU-NH91 = tested on: LOU-NH91
Method in brief: as §1

UMC-11 = tested on: UMC-11
Method in brief: as §1

SW 1573 = tested on: SW 1573
Method in brief: as §1

NCI-H727 = tested on: NCI-H727
Method in brief: as §1

NCI-H1650 = tested on: NCI-H1650
Method in brief: as §1

NCI-H2347 = tested on: NCI-H2347
Method in brief: as §1

NCI-H1755 = tested on: NCI-H1755
Method in brief: as §1

ABC-1 = tested on: ABC-1
Method in brief: as §1

LK-2 = tested on: LK-2
Method in brief: as §1

NCI-H2228 = tested on: NCI-H2228
Method in brief: as §1

HCC-44 = tested on: HCC-44
Method in brief: as §1

NCI-H358 = tested on: NCI-H358
Method in brief: as §1

NCI-H1703 = tested on: NCI-H1703
Method in brief: as §1

NCI-H838 = tested on: NCI-H838
Method in brief: as §1

NCI-H1666 = tested on: NCI-H1666
Method in brief: as §1

201T = tested on: 201T
Method in brief: as §1

NCI-H1355 = tested on: NCI-H1355
Method in brief: as §1

NCI-H2009 = tested on: NCI-H2009
Method in brief: as §1

BEN = tested on: BEN
Method in brief: as §1

HCC-366 = tested on: HCC-366
Method in brief: as §1

NCI-H2405 = tested on: NCI-H2405
Method in brief: as §1

NCI-H520 = tested on: NCI-H520
Method in brief: as §1

IA-LM = tested on: IA-LM
Method in brief: as §1

NCI-H1734 = tested on: NCI-H1734
Method in brief: as §1

`CCCCCCCCCCCC1=C(O)C(=O)C=C(O)C1=O` [Embelin] + O=C(c1cc(Cc2n[nH]c(=O)c3ccccc23)ccc1F)N1CCN(C(=O)C2CC2)CC1 [Olaparib] (partner 8 µM) gave a relative viability (HCC-78; first compound 0.08 µM) of 0.953, a relative viability (HCC-78; first compound 0.8 µM) of 0.78 and a relative viability (HCC-78; first compound 2.53 µM) of 0.961. It also gave a relative viability (HCC-78; first compound 8 µM) of 0.778, a relative viability (LOU-NH91; first compound 0.08 µM) of 0.931 and a relative viability (LOU-NH91; first compound 0.8 µM) of 1.01. For the same compound, the relative viability (LOU-NH91; first compound 2.53 µM) was 0.988, the relative viability (LOU-NH91; first compound 8 µM) was 0.924 and the relative viability (UMC-11; first compound 0.08 µM) was 0.338. The relative viability (UMC-11; first compound 0.8 µM) was 0.389, the relative viability (UMC-11; first compound 2.53 µM) was 0.352 and the relative viability (UMC-11; first compound 8 µM) was 0.331. The relative viability (SW 1573; first compound 0.08 µM) was 0.545, the relative viability (SW 1573; first compound 0.8 µM) was 0.561 and the relative viability (SW 1573; first compound 2.53 µM) was 0.443. For the same compound, the relative viability (SW 1573; first compound 8 µM) was 0.47, the relative viability (NCI-H727; first compound 0.08 µM) was 0.757 and the relative viability (NCI-H727; first compound 0.8 µM) was 0.621. It also gave a relative viability (NCI-H727; first compound 2.53 µM) of 0.777, a relative viability (NCI-H727; first compound 8 µM) of 0.633 and a relative viability (NCI-H1650; first compound 0.08 µM) of 0.775. For the same compound, the relative viability (NCI-H1650; first compound 0.8 µM) was 0.85, the relative viability (NCI-H1650; first compound 2.53 µM) was 1.02 and the relative viability (NCI-H1650; first compound 8 µM) was 0.817. The relative viability (NCI-H2347; first compound 0.08 µM) was 0.596, the relative viability (NCI-H2347; first compound 0.8 µM) was 0.641 and the relative viability (NCI-H2347; first compound 2.53 µM) was 0.521. It also gave a relative viability (NCI-H2347; first compound 8 µM) of 0.68, a relative viability (NCI-H1755; first compound 0.08 µM) of 0.986 and a relative viability (NCI-H1755; first compound 0.8 µM) of 0.879. It also gave a relative viability (NCI-H1755; first compound 2.53 µM) of 0.901, a relative viability (NCI-H1755; first compound 8 µM) of 0.849 and a relative viability (ABC-1; first compound 0.08 µM) of 0.847. The relative viability (ABC-1; first compound 0.8 µM) was 0.988, the relative viability (ABC-1; first compound 2.53 µM) was 0.805 and the relative viability (ABC-1; first compound 8 µM) was 0.871. The relative viability (LK-2; first compound 0.08 µM) was 0.72, the relative viability (LK-2; first compound 0.8 µM) was 0.515 and the relative viability (LK-2; first compound 2.53 µM) was 0.686. It also gave a relative viability (LK-2; first compound 8 µM) of 0.69, a relative viability (NCI-H2228; first compound 0.08 µM) of 0.474 and a relative viability (NCI-H2228; first compound 0.8 µM) of 0.886. It also gave a relative viability (NCI-H2228; first compound 2.53 µM) of 0.735, a relative viability (NCI-H2228; first compound 8 µM) of 0.755 and a relative viability (HCC-44; first compound 0.08 µM) of 0.989. For the same compound, the relative viability (HCC-44; first compound 0.8 µM) was 0.959, the relative viability (HCC-44; first compound 2.53 µM) was 1.01 and the relative viability (HCC-44; first compound 8 µM) was 1. For the same compound, the relative viability (NCI-H358; first compound 0.08 µM) was 0.554, the relative viability (NCI-H358; first compound 0.8 µM) was 0.658 and the relative viability (NCI-H358; first compound 2.53 µM) was 0.711. It also gave a relative viability (NCI-H358; first compound 8 µM) of 0.623, a relative viability (NCI-H1703; first compound 0.08 µM) of 0.457 and a relative viability (NCI-H1703; first compound 0.8 µM) of 0.442. For the same compound, the relative viability (NCI-H1703; first compound 2.53 µM) was 0.388, the relative viability (NCI-H1703; first compound 8 µM) was 0.286 and the relative viability (NCI-H838; first compound 0.08 µM) was 0.736. The relative viability (NCI-H838; first compound 0.8 µM) was 0.83, the relative viability (NCI-H838; first compound 2.53 µM) was 0.883 and the relative viability (NCI-H838; first compound 8 µM) was 0.766. It also gave a relative viability (NCI-H1666; first compound 0.08 µM) of 0.749, a relative viability (NCI-H1666; first compound 0.8 µM) of 0.779 and a relative viability (NCI-H1666; first compound 2.53 µM) of 0.827. The relative viability (NCI-H1666; first compound 8 µM) was 0.713, the relative viability (201T; first compound 0.08 µM) was 0.826 and the relative viability (201T; first compound 0.8 µM) was 0.875. The relative viability (201T; first compound 2.53 µM) was 0.853, the relative viability (201T; first compound 8 µM) was 0.902 and the relative viability (NCI-H1355; first compound 0.08 µM) was 0.73. It also gave a relative viability (NCI-H1355; first compound 0.8 µM) of 0.675, a relative viability (NCI-H1355; first compound 2.53 µM) of 0.869 and a relative viability (NCI-H1355; first compound 8 µM) of 0.733. The relative viability (NCI-H2009; first compound 0.08 µM) was 0.693, the relative viability (NCI-H2009; first compound 0.8 µM) was 0.821 and the relative viability (NCI-H2009; first compound 2.53 µM) was 0.71. The relative viability (NCI-H2009; first compound 8 µM) was 0.696, the relative viability (BEN; first compound 0.08 µM) was 1.15 and the relative viability (BEN; first compound 0.8 µM) was 1.37. For the same compound, the relative viability (BEN; first compound 2.53 µM) was 1.13, the relative viability (BEN; first compound 8 µM) was 1.22 and the relative viability (HCC-366; first compound 0.08 µM) was 0.335. It also gave a relative viability (HCC-366; first compound 0.8 µM) of 0.369, a relative viability (HCC-366; first compound 2.53 µM) of 0.372 and a relative viability (HCC-366; first compound 8 µM) of 0.423. It also gave a relative viability (NCI-H2405; first compound 0.08 µM) of 0.872, a relative viability (NCI-H2405; first compound 0.8 µM) of 0.842 and a relative viability (NCI-H2405; first compound 2.53 µM) of 0.909. It also gave a relative viability (NCI-H2405; first compound 8 µM) of 0.863, a relative viability (NCI-H520; first compound 0.08 µM) of 0.39 and a relative viability (NCI-H520; first compound 0.8 µM) of 0.327. It also gave a relative viability (NCI-H520; first compound 2.53 µM) of 0.342, a relative viability (NCI-H520; first compound 8 µM) of 0.352 and a relative viability (IA-LM; first compound 0.08 µM) of 0.899. It also gave a relative viability (IA-LM; first compound 0.8 µM) of 0.894, a relative viability (IA-LM; first compound 2.53 µM) of 0.847 and a relative viability (IA-LM; first compound 8 µM) of 0.616. For the same compound, the relative viability (NCI-H1734; first compound 0.08 µM) was 0.623, the relative viability (NCI-H1734; first compound 0.8 µM) was 0.568 and the relative viability (NCI-H1734; first compound 2.53 µM) was 0.651. For the same compound, the relative viability (NCI-H1734; first compound 8 µM) was 0.644.
